Measurements as given in patent US7279497B2, “Benzopyran derivatives substituted with secondary amines including imidazole, their preparation and pharmaceutical compositions containing them” (Korea Research Institute of Chemical Technology, priority 2002, dated 2007).
Marks after values point to notes of the source that are not given here.

What was measured:
SPF SD rats = settings: rat, in vivo, po;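 further: Six-week-old animals, two per group, followed across an observation period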
[1] = tested on: HUVECs (Human umbilical vein endothelial cells); assay: Inhibitory effects on HUVEC tube formation; format: cell-based; settings: for inhibitory effect on HUVEC tube formation: 50 uM;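 on tube formation: from minus no inhibition up to plus-plus-plus complete inhibition versus vehicle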
Procedure: The Inhibitory effects of the compounds of the formula 1 on angiogenesis were meassured by the vascular tube formation assay of HUVECs (Human umbilical vein endothelial cells), which is one of the major angiogenic steps.
HUVECs were isolated from human umbilical vein, and cultured. HUVECs within passage 5 from confluent cultures were detached, and plated onto a layer of a bFGF (basic fibroblast growth factor)-reduced and polymerized Matrigel. Matrigel cultures were incubated with or without the compounds of formula 1, and the changes of cell morphology were captured through a phase contrast microscope and photographed.

A549 NSCLC = assay: Inhibition on A549 NSCLC growth in nude mice xenografts; format: in vivo, nude mice (BALB/c nu/nu); settings: for Inhibition (%) of tumor volume: 50 mg/Kg; for Tumor volume: 50 mg/Kg i.p. once daily day 1 to day 20
Procedure: Human tumor xenograft experiments were performed to evaluate whether the compounds of the formula 1 inhibit growth of human tumors implanted in nude mice.
(§1) Nude mice (BALB/c nu/nu, male) were purchased from Charls River Japan, Inc., and housed and treated under SPF (Special Pathogen Free) facilities according to the regulation of NIH (national institutes of health). A549 cells isolated from human non small cell lung cancer (NSCLC) were purchased from ATCC ([…], USA), and maintained as an exponentially growing monolayer in Korea Research Institute of Chemical Technology. Effects of the compounds of present invention on implanted tumor growth were measured by the comparison of tumor sizes, in addition, the changes of body weights and survival % of nude mice were observed.
Nude mice had been adjusted to the laboratory for 2-3 weeks after purchase, and all procedures were performed on male mice of 8 weeks of age, within a weight range of 18-20 g.
A549 tumor xenografts were established in the right flank of mice by subcutaneous injection of cells in 3×3×3 mm^3 size of culture. 24 hours after cell implantation, the administration of the compounds was started and which day is defined as day 1. Nude mice were injected intraperitoneally with the compound of example 23 (50 mg/kg) or vehicle (PBS containing 0.5% tween 80) once daily from day 1 to day 20. Tumor volume (V) was assessed by caliper measurement using the mathematical formula 1, where a was the longest diameter across the tumor and b was the corresponding perpendicular short diameter. Volume (mm^3)=a×b^2/2 [Mathematical Formula 1]
Inhibition (%) was calculated as (1−(VT)n/−(VC)n)×100, where (VT)n and (VC)n were the mean tumor volume of treated and control group at n days after administration of the compound. Each group consisted of 8 mice, and statistical significance was represented as student-T test (* p<0.05).

[2] = Changes of body weight in nude mice implanted A549; format: in vivo, nude mice (BALB/c nu/nu); settings: 50 mg/Kg
Excerpt: as §1
The effects of the compounds of the formula 1 on changes of body weights were determined. Body weights of nude mice were measured using AND balance at 5 day intervals starting from the date of administration of compounds, and represented as a mean value of treated group […], respectively.

A549 implanted mice = assay: Survival % in A549 implanted mice; format: in vivo; settings: for Survival %: 50 mg/Kg
Excerpt: as §1
Survival percents were represented using following mathematical formula 2, where N0 is the number of mice at the first day of administration, and Nn is the number of mice at n days after administration. Survival %=Nn/N0×100 [Mathematical formula 2]

Row | Compound | clinical symptoms, body weight and mortality (SPF SD rats) | Tube formation ([1]; 50 μM) | inhibitory effect on HUVEC tube formation [1] | further results
1 | COC(OC)[C@@]1(C)Oc2ccc([N+](=O)[O-])cc2[C@@H](N(Cc2ncc[nH]2)c2ccc(C)cc2C)[C@@H]1O [Example 9, (2S,3S,4R)-3,4-dihydro-2-dimethoxymethyl-3-hydroxy-2-methyl-6-nitro-4-[N-(2,4-dimethylphenyl)-N-(1H-imidazol-2-ylmethyl)amino]-2H-1-benzopyran] | no significant changes | + | – | –
2 | COC(OC)[C@@]1(C)Oc2ccc([N+](=O)[O-])cc2[C@@H](N(Cc2ncc[nH]2)c2ccc(C(F)(F)F)cc2)[C@@H]1O [Example 5, (2S,3S,4R)-3,4-dihydro-2-dimethoxymethyl-3-hydroxy-2-methyl-6-nitro-4-[N-(4-trifluoromethylphenyl)-N-(1H-imidazol-2-ylmethyl)amino]-2H-1-benzopyran] | no significant changes | ++ | strongly inhibited | –
3 | COC(OC)[C@]1(C)Oc2ccc([N+](=O)[O-])cc2[C@H](N(Cc2ncc[nH]2)c2cccc(C)c2C)[C@H]1O [Example 12, (2R,3R,4S)-3,4-dihydro-2-dimethoxymethyl-3-hydroxy-2-methyl-6-nitro-4-[N-(2,3-dimethylphenyl)-N-(1H-imidazol-2-ylmethyl)amino]-2H-1-benzopyran] | no significant changes | + | – | –
4 | COC(OC)[C@]1(C)Oc2ccc([N+](=O)[O-])cc2[C@@H](N(Cc2ncc[nH]2)c2ccc(Cl)cc2)[C@@H]1O [Example 4, (2R,3S,4R)-3,4-dihydro-2-dimethoxymethyl-3-hydroxy-2-methyl-6-nitro-4-[N-(4-chlorophenyl)-N-(1H-imidazol-2-ylmethyl)amino]-2H-1-benzopyran] | no significant changes | + | – | –
5 | COC(OC)[C@]1(C)Oc2ccc(N)cc2[C@H](N(Cc2ncc[nH]2)c2ccc(Br)cc2)[C@H]1O [Example 29, (2R,3R,4S)-6-amino-3,4-dihydro-2-dimethoxymethyl-3-hydroxy-2-methyl-4-[N-(4-bromophenyl)-N-(1H-imidazol-2-ylmethyl)amino]-2H-1-benzopyran] | no significant changes | + | – | –
6 | COC(OC)[C@@]1(C)Oc2ccc([N+](=O)[O-])cc2[C@@H](N(Cc2ncc[nH]2)c2ccccc2C(C)C)[C@@H]1O [Example 10, (2S,3S,4R)-3,4-dihydro-2-dimethoxymethyl-3-hydroxy-2-methyl-6-nitro-4-[N-(2-isopropylphenyl)-N-(1H-imidazol-2-ylmethyl)amino]-2H-1-benzopyran] | no significant changes | ++ | strongly inhibited | –
7 | COC(OC)[C@@]1(C)Oc2ccc([N+](=O)[O-])cc2[C@@H](N(Cc2ncc[nH]2)c2ccc(OC(F)(F)F)cc2)[C@@H]1O [Example 7, (2S,3S,4R)-3,4-dihydro-2-dimethoxymethyl-3-hydroxy-2-methyl-6-nitro-4-[N-(4-trifluoromethoxyphenyl)-N-(1H-imidazol-2-ylmethyl)amino]-2H-1-benzopyran] | no significant changes | + | – | –
8 | COc1ccc(N(Cc2ncc[nH]2)[C@H]2c3cc(N)ccc3O[C@@](C)(C(OC)OC)[C@@H]2O)cc1 [Example 28, (2R,3R,4S)-6-amino-3,4-dihydro-2-dimethoxymethyl-3-hydroxy-2-methyl-4-[N-(4-methoxyphenyl)-N-(1H-imidazol-2-ylmethyl)amino]-2H-1-benzopyran] | no significant changes | + | – | –
9 | COC(OC)[C@]1(C)Oc2ccc(N)cc2[C@H](N(Cc2ncc[nH]2)c2ccc(Cl)cc2)[C@H]1O [Example 23, (2R,3R,4S)-6-amino-3,4-dihydro-2-dimethoxymethyl-3-hydroxy-2-methyl-4-[N-(4-chlorophenyl)-N-(1H-imidazol-2-ylmethyl)amino]-2H-1-benzopyran] | no significant changes | +++ | didn't show any tube like structures | Inhibition (%) of tumor volume (A549 NSCLC; 25 days): (40%); Tumor volume (A549 NSCLC; 25 days): 92.2 mm^3; Inhibition (%) of tumor volume (A549 NSCLC; 35 days): (39%); Tumor volume (A549 NSCLC; 35 days): 186.8 mm^3; Inhibition (%) of tumor volume (A549 NSCLC; 45 days): (50%); Tumor volume (A549 NSCLC; 45 days): 244.3* mm^3; Inhibition (%) of tumor volume (A549 NSCLC; 65 days): (52%); Tumor volume (A549 NSCLC; 65 days): 494.8* mm^3; Inhibition of A549 NSCLC growth (A549 NSCLC; from 45 days to 61 days after implantation): 50-52%; retardation or loss of body weight gain [2]: not observed; Body weight ([2]; 1 day): 22.30 g; Body weight ([2]; 14 days): 25.42 g; Body weight ([2]; 25 days): 26.17 g; Body weight ([2]; 35 days): 27.10 g; Survival % (A549 implanted mice; 1 day): 100%; Survival % (A549 implanted mice; 5 days): 100%; Survival % (A549 implanted mice; 15 days): 100%; Survival % (A549 implanted mice; 20 days): 100%; survival rate (A549 implanted mice; table 6): 100%
10 | COC(OC)[C@@]1(C)Oc2ccc(C#N)cc2[C@@H](N(Cc2ncc[nH]2)c2ccc(Cl)cc2)[C@@H]1O [Example 22, (2S,3S,4R)-6-cyano-3,4-dihydro-2-dimethoxymethyl-3-hydroxy-2-methyl-4-[N-(4-chlorophenyl)-N-(1H-imidazol-2-ylmethyl)amino]-2H-1-benzopyran] | no significant changes | – | – | Tube formation ([1]; 10 μM): +; Tube formation ([1]; 100 μM): ++
11 | COC(OC)[C@]1(C)Oc2ccc([N+](=O)[O-])cc2[C@H](N(Cc2ncc[nH]2)c2ccc(Cl)cc2)[C@H]1O [Example 3, (2R,3R,4S)-3,4-dihydro-2-dimethoxymethyl-3-hydroxy-2-methyl-6-nitro-4-[N-(4-chlorophenyl)-N-(1H-imidazol-2-ylmethyl)amino]-2H-1-benzopyran] | no significant changes | ++ | strongly inhibited | –
12 | COC(OC)[C@@]1(C)Oc2ccc([N+](=O)[O-])cc2[C@@H](N(Cc2ncc[nH]2)c2ccc(Br)cc2)[C@@H]1O [Example 8, (2S,3S,4R)-3,4-dihydro-2-dimethoxymethyl-3-hydroxy-2-methyl-6-nitro-4-[N-(4-bromophenyl)-N-(1H-imidazol-2-ylmethyl)amino]-2H-1-benzopyran] | no significant changes | + | – | –
13 | COC(OC)[C@]1(C)Oc2ccc([N+](=O)[O-])cc2[C@H](N(Cc2ncc[nH]2)c2ccc(Br)cc2)[C@H]1O [Example 13, (2R,3R,4S)-3,4-dihydro-2-dimethoxymethyl-3-hydroxy-2-methyl-6-nitro-4-[N-(4-bromophenyl)-N-(1H-imidazol-2-ylmethyl)amino]-2H-1-benzopyran] | no significant changes | + | – | –
